# Test results reported in patent US20150297761A1, “PEPTIDIC STRUCTURES INCORPORATING AN AMINO ACID METAL COMPLEX AND APPLICATIONS IN MAGNETIC RESONANCE IMAGING” (THE GENERAL HOSPITAL CORPORATION, priority 2012, published 2015).
# What was measured:
# [1] = target: HSA (Homo sapiens, UniProt P02768); assay: HSA binding by ultrafiltration and ICP-MS (Example 3); type: in vitro ADME; details: 0.1 mM compound, 4.5% (w/v) HSA, 37° C.
# Method: In order to measure HSA binding of the complexes, a 0.1 mM solution (determined by ICP-MS) of the corresponding Gd complex in 4.5% w/v HSA was prepared and pipetted into a Ultrafree-MC Microcentrifuge Filter (NMWL 5,000 Da, PLCC, Millipore). The mixture is incubated at 37° C. for 10 minutes and subsequently centrifuged at 12,000 rpm for 15 minutes. Binding is determined by measurement of Gd content in the filtrate by ICP-MS.
# [2] = Relaxivity in the absence and presence of HSA (Example 3); type: physicochemical
# Method: ^1H and ^13C NMR spectra were recorded on a Varian 500 NMR system equipped with a 5 mm broadband probe. Longitudinal relaxation times, T1, were measured by using the inversion recovery method on Bruker Minispecs. mq20 (20 MHz) and mq60 (60 MHz). Purification via HPLC of intermediates toward Fmoc-DOTAla was performed using method A: Injection of crude mixture onto preparative HPLC on a Rainin, Dynamax (column: 250 mm Kromasil C18) by using A: 0.1% TFA in water, B: 0.1% TFA in MeCN, flow-rate 15 mL/min, 1 over 23 minutes. HPLC purity analysis (both UV and MS detection) was carried out on an Agilent 1100 system (column: Phenomenex Luna, C18(2) 100/2 mm) with UV detection at 220, 254 and 280 nm by using a method B: A gradient of A(0.1% formic acid in water) to 95% B(0.1% formic acid in MeCN), flow-rate 0.8 mL/min, 1 over 15 minutes.
# [3] = Relaxivity of DOTAlaP derivatives (Example 6); type: physicochemical
# Method: Relaxivity. Longitudinal relaxation times T1, were measured on Bruker Minispecs mq20 (20 MHz) and mq60 (60 MHz) using an inversion recovery method with 10 inversion time values ranging from 0.05×T1 to 5×Ti. Relaxivity was calculated from a linear plot of 3 different concentrations ranging from 0.25 to 1.0 mM versus the corresponding inverse relaxation times. The temperature was adjusted to 37° C.
# [4] = 17O NMR of Gd complexes for determination of τM (Example 6); type: physicochemical; details: pH 7.4, 10 mM PBS; for ^310 TM (ns) / ^310kex × 10^6 (s^−1): 310 K
# Method: ^17O NMR of Gd complexes for Determination of TM. ^17O NMR measurements of solutions were performed at 11.7 T on 350 μL samples contained in 5 mm standard NMR tubes on a Varian spectrometer. Temperature was regulated by air flow controlled by a Varian VT unit. ^17O transverse relaxation times of a >4 mM solution of Gd(3) and Gd(5a) (pH 7.4, 10 mM PBS buffer) were measured using a CPMG sequence. The concentration of the sample was determined by ICP-MS. Reduced relaxation rates, 1/T2r were calculated from the difference of 1/T2 between the sample and the water blank, and then divided by the mole fraction of coordinated water. The temperature dependence of 1/T2r was fit to a 4-parameter model as previously described. The Gd—O hyperfine-coupling constant, A/h, was assumed to be 3.8×10^6 rad/s, the Gd—O distance was assumed to be 3.1 Å.
# [5] = Ligand challenge, equilibrium constant Kcomp of [Gd(DTPA)(H2O)]2− vs. L; type: physicochemical; details: calculated from literature thermodynamic data
# Method: As a means of assessing thermodynamic stability relative to other Gd(III)-complexes, [Gd(CyPic3A)(H2O)2]^− was challenged with DTPA in pH 7.4 25 mM Tris buffer. […] From this information it was possible to deduce equilibrium constants (Kcomp) for the competition reaction described in Equation 5,^31 where L=DTPA and L′=challenging chelator.
# Equilibration of each solution was monitored by LC-MS. Relative distributions of [Gd(CyPic3A)(H2O)2]^− and CyPic3A were determined by integrating the corresponding absorbance traces at 280 nm. […] Kcomp values determined between [Gd(DTPA)(H2O)]^2− and various ligands were determined from conditional formation constants (Kcond)^4 values taken from the literature.^6-16 Direct comparisons were only made between Kcond values determined under identical conditions.
# [6] = Relaxivity before and after disulfide bond reduction with TCEP; type: physicochemical; details: for relaxivity after disulfide bond reduction: 20 eq. TCEP 30 minutes, T1 at 37° C., field not stated in the sentence (0.47 and 1.41 T examined); for relaxivity r1, cyclic versus linearized (reduced) multimer: 1.4 T; for relaxivity r1, cyclic versus linearized (reduced) multimer / Relaxivity per Gd, TCEP reduced / Relaxivity per Gd, cyclic: 37° C.; for Relaxivity per Gd, TCEP reduced: after TCEP reduction of the disulfide bond; for Relaxivity per Gd, cyclic: first value column, before reduction
# Method: Investigation of the effect of tertiary structure on relaxivity, was done by examination of the effect of disulfide bond reduction on T1 at 0.47 and 1.41 T. T1 was measured for each sample at 37° C. and then the samples were incubated with 20 eq. TCEP for 30 minutes at room temperature to reduce the intramolecular disulfide bond and give the linear peptide. Subsequently, the T1 values were remeasured and concentrations re-determined in order to calculate relaxivities. […] Over all, reduction of the disulfide bond has only a slight effect on relaxivity (FIGS. 16-18 and Table 5).
# Reduction of disulfide bond for relaxivity measurements. Complex solutions of purified, cyclic Gd complexes (concentrations of 0.1-0.025 mM, 110 μL) in HEPES buffer (50 mM, pH 7.4) were mixed with TCEP solution (20 mM in HEPES, 10 μL) and incubated room temperature. Reduction was checked by LCMS analysis and found to be complete after 30 minutes.
# (§1) Measurement of relaxivity. Longitudinal relaxation times T1, were measured on Bruker Minispecs mq20 (0.47 T) and mq60 (1.41 T), a Bruker Bioscan horizontal bore 4.7 T, 9.4 T and 11.7 T Varian NMR spectrometers. T1 was measured by using an inversion recovery method with 10 inversion time values ranging from 0.05×T1 to 5×T1. Relaxivity was calculated from a linear plot of 3 or 4 different concentrations (ranging from 0.01 to 0.5 mM, depending on amount of compound isolated) versus the corresponding inverse relaxation times. All samples were measured at 37° C. using either the internal temperature control of the instrument (0.47, 1.41, 9.4 and 11.7 T) or a warm air blower (4.7 T). MS-325/HSA was prepared in a 4.5% w/v solution of HSA (0.66 mM) in PBS. The MS-325 concentration (in presence of HSA) ranged from 0.05 to 0.15 mM.
# [7] = Relaxivity of Gd(DOTAla) metallopeptides and reference agents (T1 inversion recovery, 37° C.); type: physicochemical; details: for Relaxivity per Gd, 400 MHz: 400 MHz (9.4 T); for r1 [0.47 T], per molecule / r1 [1.4 T], per molecule: per molecule (in parentheses)
# Method: Main numbers are given per Gd, numbers in parentheses are per molecule values. All numbers were determined at 37° C. using an inversion recovery sequence at concentrations ranging from 0.05 to 0.6 mM/Gd. Table 4 in Example 2 further expands the data of Table 1.
# Per Gd relaxivities were determined by measuring T1 at 37° C. using 20, 60, 200, 400 and 500 MHz spectrometers. Relaxivities for MS-325 (with and without the presence of HSA) as a reference compound with a long τR and [Gd(HP-DO3A)(H2O)] as a reference for very short τR were also measured, and all the relaxivity data is tabulated in Table 4, together with results obtained from literature for the compounds with similar estimated τR. […] Additional rigidity through cyclization seems to provide only minor relaxivity increase for the dimeric and trimeric systems (Gd2C2 and Gd3C3).
# as §1
# Chain of HSA (P02768 25-609): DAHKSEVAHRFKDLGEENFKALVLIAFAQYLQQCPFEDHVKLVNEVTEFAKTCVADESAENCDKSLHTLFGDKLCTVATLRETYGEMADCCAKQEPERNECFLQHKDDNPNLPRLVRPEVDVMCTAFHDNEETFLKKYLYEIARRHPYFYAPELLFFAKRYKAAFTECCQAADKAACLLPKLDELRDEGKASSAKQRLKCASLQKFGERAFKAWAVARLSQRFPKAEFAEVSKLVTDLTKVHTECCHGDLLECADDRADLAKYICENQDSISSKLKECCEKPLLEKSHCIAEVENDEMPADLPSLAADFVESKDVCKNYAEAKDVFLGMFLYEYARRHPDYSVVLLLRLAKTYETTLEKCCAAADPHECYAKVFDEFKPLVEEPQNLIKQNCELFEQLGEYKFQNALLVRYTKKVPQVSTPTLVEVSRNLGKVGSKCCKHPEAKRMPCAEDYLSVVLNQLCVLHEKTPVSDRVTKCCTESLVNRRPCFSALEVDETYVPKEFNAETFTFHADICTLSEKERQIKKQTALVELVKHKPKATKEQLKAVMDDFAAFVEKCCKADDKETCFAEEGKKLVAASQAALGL
molecule,measurement,setting,value
"2,2′,2″-(10-(3-(((1-Carboxy-2-(4-hydroxy-3,5-diiodophenyl)ethyl)-amino)-2-(2-(4-isobutylphenyl)propanamido)-3-oxopropyl)-1,4,7,10-tetraazacyclododecane-1,4,7-triyl)triacetic Acid [Gd (8)]",% HSA binding,[1],90%
same,"r1 (20 MHz), absence of HSA","[2]; 20 MHz, absence of HSA (first value of cell)",7.1 mM⁻¹ s⁻¹
same,"r1 (20 MHz), presence of HSA","[2]; 20 MHz, presence of HSA (second value of cell)",31.8 mM⁻¹ s⁻¹
same,"r1 (60 MHz), absence of HSA","[2]; 60 MHz, absence of HSA (first value of cell)",6.7 mM⁻¹ s⁻¹
same,"r1 (60 MHz), presence of HSA","[2]; 60 MHz, presence of HSA (second value of cell)",21.1 mM⁻¹ s⁻¹
"2,2′-(4-(2-carboxy-2-(2-(4-isobutylphenyl)propanamido)ethyl)-10-(phosphonomethyl)-1,4,7,10-tetraazacyclododecane-1,7-diyl)diacetic acid [Gd(5a)]","r1 (20 MHz, 37° C., mM^−1s^−1)",[3],5.4 mM⁻¹ s⁻¹
same,"r1 (60 MHz, 37° C., mM^−1s^−1)",[3],4.1 mM⁻¹ s⁻¹
same,^310 TM (ns),[4],6.36 ± 0.09 ns
same,^310kex × 10^6 (s^−1),[4],158 ± 3 × 10^6 s^−1
same,ΔH^‡,[4],5.492 ± 0.421 kcal/mol
"2,2′-(4-(2-carboxy-2-((1-(4-isobutylphenyl)ethyl)amino)ethyl)-10-(phosphonomethyl)-1,4,7,10-tetraazacyclododecane-1,7-diyl)diacetic acid [Gd(4b)]","r1 (20 MHz, 37° C., mM^−1s^−1)",[3],4 mM⁻¹ s⁻¹
same,"r1 (60 MHz, 37° C., mM^−1s^−1)",[3],3.8 mM⁻¹ s⁻¹
CC1(N(CC(=O)O)CC(=O)O)CN(CC(=O)O)CCN(CC(=O)O)C1 [AAZTA],Kcomp [Gd(DTPA)(H2O)]^2- vs. L pH 4,[5],0.091^9
same,"Kcomp, [Gd(DTPA)(H2O)]^2- vs. L pH 7.4",[5],.001^9
"NC(CN1CCN(CC(=O)O)CCN(CP(=O)(O)O)CCN(CC(=O)O)CC1)C(=O)O (stereo not shown) [Gd(3), 2,2′-(4-(2-amino-2-carboxyethyl)-10-(phosphonomethyl)-1,4,7,10-tetra-azacyclododecane-1,7-diyl)diacetic acid]","r1 (20 MHz, 37° C., mM^−1s^−1)",[3],6.4 mM⁻¹ s⁻¹
same,"r1 (60 MHz, 37° C., mM^−1s^−1)",[3],6.1 mM⁻¹ s⁻¹
same,^310 TM (ns),[4],8.1 ± 0.25 ns
same,^310kex × 10^6 (s^−1),[4],125 ± 4 × 10^6 s^−1
same,ΔH^‡,[4],3.23 ± 0.268 kcal/mol
"CC(C)Cc1ccc(C(C)C(=O)NCCNC(=O)C(N)CN2CCN(CC(=O)O)CCN(CP(=O)(O)O)CCN(CC(=O)O)CC2)cc1 (stereo not shown) [Gd(5b), 2, 2′-(4-(2-amino-3-((2-(2-(4-isobutylphenyl)propanamido)ethyl)amino)-3-oxopropyl)-10-(phosphonomethyl)-1,4,7,10-tetraazacyclododecane-1,7-diyl)diacetic acid]","r1 (20 MHz, 37° C., mM^−1s^−1)",[3],3.2 mM⁻¹ s⁻¹
same,"r1 (60 MHz, 37° C., mM^−1s^−1)",[3],3.0 mM⁻¹ s⁻¹
O=C(O)CN1CCN(CC(=O)O)Cc2cccc(n2)CN(CC(=O)O)CC1 [PCTA],Kcomp [Gd(DTPA)(H2O)]^2- vs. L pH 4,[5],0.064^10
same,"Kcomp, [Gd(DTPA)(H2O)]^2- vs. L pH 7.4",[5],0.019^10
H2N—C(SH)PG-DOTAla(Gd)-G-DOTAla(Gd)-G-DOTAla(Gd)-GC(SH)CONH2 [Gd3C3-red],relaxivity after disulfide bond reduction,[6],11.5 mM⁻¹ s⁻¹
H2N—C(SH)PG-DOTAla(Gd)-G-DOTAla(Gd)-GC(SH)CONH2 [Gd2C2-red],"relaxivity r1, cyclic versus linearized (reduced) multimer",[6],9 mM⁻¹ s⁻¹
same,relaxivity after disulfide bond reduction,[6],9 mM⁻¹ s⁻¹
H2N—C(S^cycl)PG-DOTAla(Gd)-G-DOTAla(Gd)-G-DOTAla(Gd)-GC(S^cycl)CONH2 [Gd3C3],"Relaxivity per Gd, 20 MHz",[7],12.7 mM⁻¹ s⁻¹
same,"Relaxivity per Gd, 60 MHz",[7],12.3 mM⁻¹ s⁻¹
same,"Relaxivity per Gd, 200 MHz",[7],9.2 mM⁻¹ s⁻¹
same,"Relaxivity per Gd, 400 MHz",[7],6.6 mM⁻¹ s⁻¹
same,"Relaxivity per Gd, 500 MHz",[7],5.5 mM⁻¹ s⁻¹
same,"r1 [0.47 T], per Gd",[7],13.38 mM⁻¹ s⁻¹
same,"r1 [1.4 T], per Gd",[7],12.86 mM⁻¹ s⁻¹
same,"r1 [0.47 T], per molecule",[7],40.14 mM⁻¹ s⁻¹
same,"r1 [1.4 T], per molecule",[7],38.58 mM⁻¹ s⁻¹
same,"Relaxivity per Gd, TCEP reduced",[6],11.5 mM⁻¹ s⁻¹
same,"Relaxivity per Gd, cyclic",[6],12.3 mM⁻¹ s⁻¹
H2N—C(S^cycl)PG-DOTAla(Gd)-G-DOTAla(Gd)-GC(S^cycl)CON H2 [Gd2C2],"Relaxivity per Gd, 20 MHz",[7],11.4 mM⁻¹ s⁻¹
same,"Relaxivity per Gd, 60 MHz",[7],10.6 mM⁻¹ s⁻¹
same,"Relaxivity per Gd, 200 MHz",[7],7.5 mM⁻¹ s⁻¹
same,"Relaxivity per Gd, 400 MHz",[7],5.7 mM⁻¹ s⁻¹
same,"Relaxivity per Gd, 500 MHz",[7],4.5 mM⁻¹ s⁻¹
same,"r1 [0.47 T], per Gd",[7],13.1 mM⁻¹ s⁻¹
same,"r1 [1.4 T], per Gd",[7],12.2 mM⁻¹ s⁻¹
same,"r1 [0.47 T], per molecule",[7],26.2 mM⁻¹ s⁻¹
same,"r1 [1.4 T], per molecule",[7],24.4 mM⁻¹ s⁻¹
same,"relaxivity r1, cyclic versus linearized (reduced) multimer",[6],10.5 mM⁻¹ s⁻¹
same,"Relaxivity per Gd, TCEP reduced",[6],9 mM⁻¹ s⁻¹
same,"Relaxivity per Gd, cyclic",[6],10.5 mM⁻¹ s⁻¹
H2N—C(S^cycl)PG-DOTAla(Gd)-GC(S^cycl)CONH2 [GdC1],"Relaxivity per Gd, 20 MHz",[7],8.3 mM⁻¹ s⁻¹
same,"Relaxivity per Gd, 60 MHz",[7],7.1 mM⁻¹ s⁻¹
same,"Relaxivity per Gd, 200 MHz",[7],7.3 mM⁻¹ s⁻¹
same,"Relaxivity per Gd, 400 MHz",[7],5.1 mM⁻¹ s⁻¹
same,"Relaxivity per Gd, 500 MHz",[7],4.5 mM⁻¹ s⁻¹
same,"r1 [0.47 T], per Gd",[7],8.3 mM⁻¹ s⁻¹
same,"r1 [1.4 T], per Gd",[7],6.7 mM⁻¹ s⁻¹
same,"Relaxivity per Gd, TCEP reduced",[6],6.4 mM⁻¹ s⁻¹
same,"Relaxivity per Gd, cyclic",[6],7.1 mM⁻¹ s⁻¹
